Measured values as given in US12258327B2, “5-membered heteroaryl-containing aminopyridine compounds as EGFR inhibitors” (YUHAN CORPORATION, priority 2021, dated 2025).
Like-named read-outs stand apart in the source and are kept apart here.

Legend:
[1] = target: EGFR L858R/T790M/C797S (Homo sapiens, UniProt P00533, C797S/L858R/T790M); test: Biochemical EGFR kinase assay (Lance Ultra TR-FRET), triple mutant L858R/T790M/C797S
In short: (§1)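 In this biochemical assay, phosphorylation after a one-hour room-temperature reaction was detected with europium-labelled anti-phosphopeptide antibody at 2 nM final concentration.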

[2] = target: EGFR L858R/C797S (Homo sapiens, UniProt P00533, C797S/L858R); test: Biochemical EGFR kinase assay (Lance Ultra TR-FRET), double mutant L858R/C797S
In short: as §1

[3] = target: EGFR wildtype (WT) (Homo sapiens, UniProt P00533); test: Biochemical EGFR kinase assay (Lance Ultra TR-FRET), wildtype
In short: as §1

[4] = target: EGFR del19/T790M/C797S (Homo sapiens, UniProt P00533, C797S/DEL746-750/T790M); test: Biochemical EGFR kinase assay (Lance Ultra TR-FRET), triple mutant del19/T790M/C797S
In short: as §1

[5] = target: EGFR del19/C797S (Homo sapiens, UniProt P00533, C797S/DEL746-750); test: Biochemical EGFR kinase assay (Lance Ultra TR-FRET), double mutant del19/C797S
In short: as §1

[6] = IC50 L858R/T790M/C797S (nM) 100 μM ATP, 100 μM ATP
[7] = IC50 L858R/C797S (nM) 100 μM ATP, 100 μM ATP
[8] = IC50 WT (nM) 100 μM ATP, 100 μM ATP
[9] = IC50 del19/T790M/C797S (nM) 100 μM ATP, 100 μM ATP
[10] = IC50 del19/C797S (nM) 100 μM ATP, 100 μM ATP
[11] = Km ATP, read-out: IC50 L858R/T790M/C797S, Km ATP
[12] = Km ATP, read-out: IC50 L858R/C797S, Km ATP
[13] = Km ATP, read-out: IC50 WT, Km ATP
[14] = Km ATP, read-out: IC50 del19/T790M/C797S, Km ATP
[15] = Km ATP, read-out: IC50 del19/C797S, Km ATP
[16] = Km ATP, read-out: IC50 L858R/T790M/C797S (nM) Km ATP
[17] = Km ATP, read-out: IC50 L858R/C797S (nM) Km ATP
[18] = Km ATP, read-out: IC50 WT (nM) Km ATP
[19] = Km ATP, read-out: IC50 del19/T790M/C797S (nM) Km ATP
[20] = Km ATP, read-out: IC50 del19/C797S (nM) Km ATP
[21] = IC50 L858R/T790M/C797S, 100 μM ATP
[22] = IC50 del19/T790M/C797S, 100 μM ATP

EGFR del19/C797S, sequence (P00533 with tags, fused parts or gaps DEL746-750/C797S): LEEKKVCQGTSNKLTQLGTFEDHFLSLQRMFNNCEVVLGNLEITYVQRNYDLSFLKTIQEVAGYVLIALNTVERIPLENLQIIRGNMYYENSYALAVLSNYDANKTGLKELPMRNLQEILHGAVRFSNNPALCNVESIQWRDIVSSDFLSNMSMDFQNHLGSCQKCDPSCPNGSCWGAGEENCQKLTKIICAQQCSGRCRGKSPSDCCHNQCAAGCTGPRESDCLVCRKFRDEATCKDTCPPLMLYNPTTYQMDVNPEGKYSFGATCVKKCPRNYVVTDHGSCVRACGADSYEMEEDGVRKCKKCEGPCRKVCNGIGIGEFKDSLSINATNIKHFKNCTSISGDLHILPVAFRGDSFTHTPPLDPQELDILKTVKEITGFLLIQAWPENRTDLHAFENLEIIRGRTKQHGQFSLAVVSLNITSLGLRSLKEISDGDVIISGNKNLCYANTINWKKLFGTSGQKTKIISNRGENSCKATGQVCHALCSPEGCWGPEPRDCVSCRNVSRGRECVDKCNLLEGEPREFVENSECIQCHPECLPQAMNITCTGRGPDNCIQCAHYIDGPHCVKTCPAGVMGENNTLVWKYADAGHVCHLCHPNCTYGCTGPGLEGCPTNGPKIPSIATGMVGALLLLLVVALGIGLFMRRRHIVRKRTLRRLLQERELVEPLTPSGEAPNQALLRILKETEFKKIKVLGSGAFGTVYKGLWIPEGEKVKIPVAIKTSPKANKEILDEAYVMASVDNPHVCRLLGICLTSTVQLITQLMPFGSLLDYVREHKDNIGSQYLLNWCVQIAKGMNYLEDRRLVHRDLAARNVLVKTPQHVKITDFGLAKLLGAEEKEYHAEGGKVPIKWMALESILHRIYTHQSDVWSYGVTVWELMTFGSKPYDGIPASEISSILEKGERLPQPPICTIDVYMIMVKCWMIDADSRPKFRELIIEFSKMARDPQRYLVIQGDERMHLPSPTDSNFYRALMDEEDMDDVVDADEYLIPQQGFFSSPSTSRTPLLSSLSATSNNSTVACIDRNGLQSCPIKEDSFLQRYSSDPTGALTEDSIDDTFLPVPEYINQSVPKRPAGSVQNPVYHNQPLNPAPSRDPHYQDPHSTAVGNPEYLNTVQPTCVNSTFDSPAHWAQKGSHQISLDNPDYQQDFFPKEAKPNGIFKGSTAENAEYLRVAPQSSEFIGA
EGFR del19/T790M/C797S, sequence (P00533 with tags, fused parts or gaps DEL746-750/T790M/C797S): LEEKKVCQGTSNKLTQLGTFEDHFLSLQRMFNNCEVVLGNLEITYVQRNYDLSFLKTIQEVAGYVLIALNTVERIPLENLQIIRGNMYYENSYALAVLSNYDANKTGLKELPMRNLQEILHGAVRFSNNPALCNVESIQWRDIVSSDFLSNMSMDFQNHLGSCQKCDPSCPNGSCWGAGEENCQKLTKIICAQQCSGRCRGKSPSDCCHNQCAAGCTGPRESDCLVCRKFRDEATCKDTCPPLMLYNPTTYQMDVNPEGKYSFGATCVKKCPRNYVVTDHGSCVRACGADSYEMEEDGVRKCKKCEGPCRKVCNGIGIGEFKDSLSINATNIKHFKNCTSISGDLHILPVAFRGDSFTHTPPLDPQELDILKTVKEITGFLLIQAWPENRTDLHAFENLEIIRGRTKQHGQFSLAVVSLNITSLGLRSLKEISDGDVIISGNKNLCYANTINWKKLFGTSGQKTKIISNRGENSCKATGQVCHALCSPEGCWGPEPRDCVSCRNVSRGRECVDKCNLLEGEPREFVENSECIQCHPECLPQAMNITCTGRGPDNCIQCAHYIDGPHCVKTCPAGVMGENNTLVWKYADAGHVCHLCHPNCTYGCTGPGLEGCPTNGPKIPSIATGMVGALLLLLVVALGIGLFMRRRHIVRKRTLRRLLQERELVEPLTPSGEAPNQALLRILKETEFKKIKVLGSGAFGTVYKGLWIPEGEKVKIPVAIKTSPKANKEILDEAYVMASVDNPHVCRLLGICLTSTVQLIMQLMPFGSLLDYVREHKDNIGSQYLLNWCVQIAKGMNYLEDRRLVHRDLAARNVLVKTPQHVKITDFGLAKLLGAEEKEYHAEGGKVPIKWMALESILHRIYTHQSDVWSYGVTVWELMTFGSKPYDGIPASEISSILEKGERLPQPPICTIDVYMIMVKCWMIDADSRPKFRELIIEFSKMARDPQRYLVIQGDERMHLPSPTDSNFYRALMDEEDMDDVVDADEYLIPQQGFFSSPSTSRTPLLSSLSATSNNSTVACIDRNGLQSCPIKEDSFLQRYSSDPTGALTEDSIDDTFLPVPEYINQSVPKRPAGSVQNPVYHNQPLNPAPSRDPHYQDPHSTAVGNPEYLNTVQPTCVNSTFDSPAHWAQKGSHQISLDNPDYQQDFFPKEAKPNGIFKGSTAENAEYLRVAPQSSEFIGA
EGFR L858R/C797S, sequence (P00533 25-1210 C797S/L858R): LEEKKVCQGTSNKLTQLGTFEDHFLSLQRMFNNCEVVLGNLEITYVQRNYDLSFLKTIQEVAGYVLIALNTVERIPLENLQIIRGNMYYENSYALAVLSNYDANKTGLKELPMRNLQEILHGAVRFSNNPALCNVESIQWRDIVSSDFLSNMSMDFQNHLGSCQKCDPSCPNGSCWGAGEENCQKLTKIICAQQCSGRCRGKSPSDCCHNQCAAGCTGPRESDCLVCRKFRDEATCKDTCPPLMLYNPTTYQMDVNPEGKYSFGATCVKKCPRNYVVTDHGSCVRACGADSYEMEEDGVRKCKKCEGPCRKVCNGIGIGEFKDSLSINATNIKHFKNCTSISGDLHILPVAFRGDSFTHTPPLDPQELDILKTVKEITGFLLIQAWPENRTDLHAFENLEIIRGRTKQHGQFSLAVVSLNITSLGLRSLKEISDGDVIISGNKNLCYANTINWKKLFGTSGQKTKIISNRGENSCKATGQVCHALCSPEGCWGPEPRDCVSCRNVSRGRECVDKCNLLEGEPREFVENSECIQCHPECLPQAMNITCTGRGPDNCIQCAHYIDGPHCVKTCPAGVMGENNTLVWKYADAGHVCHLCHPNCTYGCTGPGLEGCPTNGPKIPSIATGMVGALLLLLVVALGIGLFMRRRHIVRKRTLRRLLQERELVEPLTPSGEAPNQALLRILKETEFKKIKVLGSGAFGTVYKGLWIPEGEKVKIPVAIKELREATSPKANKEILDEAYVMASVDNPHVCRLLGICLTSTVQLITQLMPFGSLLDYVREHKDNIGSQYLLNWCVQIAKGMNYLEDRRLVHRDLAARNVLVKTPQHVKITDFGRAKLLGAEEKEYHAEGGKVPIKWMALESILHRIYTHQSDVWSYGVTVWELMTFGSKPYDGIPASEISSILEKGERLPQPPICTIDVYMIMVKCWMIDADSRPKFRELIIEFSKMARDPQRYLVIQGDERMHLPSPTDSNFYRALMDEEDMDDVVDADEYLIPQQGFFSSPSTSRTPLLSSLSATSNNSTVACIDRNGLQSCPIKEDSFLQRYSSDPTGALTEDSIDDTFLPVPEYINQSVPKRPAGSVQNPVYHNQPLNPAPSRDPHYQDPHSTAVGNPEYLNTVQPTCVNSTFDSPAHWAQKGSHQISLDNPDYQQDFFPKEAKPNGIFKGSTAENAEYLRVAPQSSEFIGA
EGFR L858R/T790M/C797S, sequence (P00533 25-1210 T790M/C797S/L858R): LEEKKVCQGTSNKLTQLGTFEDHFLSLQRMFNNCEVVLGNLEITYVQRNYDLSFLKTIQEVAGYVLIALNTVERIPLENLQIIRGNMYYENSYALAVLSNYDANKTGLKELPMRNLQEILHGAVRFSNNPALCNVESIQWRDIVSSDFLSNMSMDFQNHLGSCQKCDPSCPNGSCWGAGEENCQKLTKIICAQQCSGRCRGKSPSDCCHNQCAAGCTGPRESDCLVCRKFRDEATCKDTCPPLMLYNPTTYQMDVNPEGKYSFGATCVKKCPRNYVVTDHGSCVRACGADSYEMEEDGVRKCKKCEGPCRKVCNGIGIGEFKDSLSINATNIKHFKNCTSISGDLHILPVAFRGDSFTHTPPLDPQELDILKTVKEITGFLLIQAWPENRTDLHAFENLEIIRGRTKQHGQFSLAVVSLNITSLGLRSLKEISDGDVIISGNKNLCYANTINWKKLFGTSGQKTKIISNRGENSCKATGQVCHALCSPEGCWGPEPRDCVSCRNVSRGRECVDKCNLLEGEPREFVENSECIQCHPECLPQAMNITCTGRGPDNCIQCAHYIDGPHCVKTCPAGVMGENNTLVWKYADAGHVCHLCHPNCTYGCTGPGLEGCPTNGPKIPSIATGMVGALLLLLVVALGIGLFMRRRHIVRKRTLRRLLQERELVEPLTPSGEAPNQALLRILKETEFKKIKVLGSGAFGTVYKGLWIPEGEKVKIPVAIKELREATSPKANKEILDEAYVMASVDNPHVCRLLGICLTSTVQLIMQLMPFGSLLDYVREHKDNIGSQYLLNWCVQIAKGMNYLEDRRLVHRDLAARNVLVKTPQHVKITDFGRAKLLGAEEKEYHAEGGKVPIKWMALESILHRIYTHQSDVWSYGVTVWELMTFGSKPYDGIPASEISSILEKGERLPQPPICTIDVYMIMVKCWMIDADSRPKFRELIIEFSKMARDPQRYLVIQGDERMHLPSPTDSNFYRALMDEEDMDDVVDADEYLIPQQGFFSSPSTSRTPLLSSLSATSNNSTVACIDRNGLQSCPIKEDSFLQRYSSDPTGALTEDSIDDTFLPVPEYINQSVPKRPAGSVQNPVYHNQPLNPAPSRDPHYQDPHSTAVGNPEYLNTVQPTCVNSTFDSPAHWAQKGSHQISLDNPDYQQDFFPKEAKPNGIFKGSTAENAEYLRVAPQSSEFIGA

Structure (SMILES)	IC50 [1, 6] [nM]	IC50 [2, 7] [nM]	IC50 [3, 8] [nM]	IC50 [4, 9] [nM]	IC50 [5, 10] [nM]	IC50 [1, 11] [nM]	IC50 [2, 12] [nM]	IC50 [3, 13] [nM]	IC50 [4, 14] [nM]	IC50 [5, 15] [nM]	IC50 [1, 16] [nM]	IC50 [2, 17] [nM]	IC50 [3, 18] [nM]	IC50 [4, 19] [nM]	IC50 [5, 20] [nM]	also measured
O=S(=O)(C1CC1)n1cc(-c2nccc(Nc3cc(N[C@@H]4CC[C@H](O)C4)c(-c4ccn(C(F)F)n4)cn3)n2)cn1 [Example 13, (1S,3R)-3-((2-((2-(1-(Cyclopropylsulfonyl)-1H-pyrazol-4-yl)pyrimidin-4-yl)amino)-5-(1-(difluoromethyl)-1H-pyrazol-3-yl)pyridin-4-yl)amino)cyclopentan-1-ol]	1	12.4	5620	0.7	3.8											
C[C@]1(O)CC[C@@H](Nc2nc(Nc3ccnc(-c4cnn(S(=O)(=O)C5CC5)c4)c3)ncc2-c2ccn(CCC(F)(F)F)n2)CC1 [Example 359, (1s,4s)-4-((2-((2-(1-(Cyclopropylsulfonyl)-1H-pyrazol-4-yl)pyridin-4-yl)amino)-5-(1-(3,3,3-trifluoropropyl)-1H-pyrazol-3-yl)pyrimidin-4-yl)amino)-1-methylcyclohexan-1-ol]						1.6	18.3	208	0.6	15.4						
Cc1nn(CC(F)(F)F)cc1-c1nccc(Nc2cc(N[C@H]3CC[C@@H](CCO)CC3)c(-c3cc(C(F)(F)F)n(C)n3)cn2)n1 [Example 334, 2-((1s,4s)-4-((2-((2-(3-Methyl-1-(2,2,2-trifluoroethyl)-1H-pyrazol-4-yl)pyrimidin-4-yl)amino)-5-(1-methyl-5-(trifluoromethyl)-1H-pyrazol-3-yl)pyridin-4-yl)amino)cyclohexyl)ethan-1-ol]						2.8	17.1	24.6	4.2	41.2						
CC(C)(O)[C@H]1CC[C@@H](Nc2cc(Nc3ccnc(-c4cnn(S(=O)(=O)C5CC5)c4)n3)ncc2-c2ccn(CCC(F)(F)F)n2)CC1 [Example 300, 2-((1s,4s)-4-((2-((2-(1-(Cyclopropylsulfonyl)-1H-pyrazol-4-yl)pyrimidin-4-yl)amino)-5-(1-(3,3,3-trifluoropropyl)-1H-pyrazol-3-yl)pyridin-4-yl)amino)cyclohexyl)propan-2-ol]											0.8	0.5	44.8	1.3	32.6	
CS(=O)(=O)c1ccn(-c2cnc(Nc3ccnc(-c4cnn(S(=O)(=O)C5CC5)c4)n3)cc2N[C@H]2CC[C@@](C)(O)CC2)n1 [Example 183, (1s,4s)-4-((2-((2-(1-(Cyclopropylsulfonyl)-1H-pyrazol-4-yl)pyrimidin-4-yl)amino)-5-(3-(methylsulfonyl)-1H-pyrazol-1-yl)pyridin-4-yl)amino)-1-methylcyclohexan-1-ol]											0.6	37.1	624	0.8	42.8	
O=S(=O)(C1CC1)n1cc(-c2nccc(Nc3cc(N[C@H]4CC[C@@H](F)CC4)c(-c4nc(C(F)F)cs4)cn3)n2)cn1 [Example 164, N^2-(2-(1-(Cyclopropylsulfonyl)-1H-pyrazol-4-yl)pyrimidin-4-yl)-5-(4-(difluoromethyl)thiazol-2-yl)-N^4-((1s,4s)-4-fluorocyclohexyl)pyridine-2,4-diamine]											4.8	135	1210	8.8	370	
C[C@]1(O)CC[C@@H](Nc2cc(Nc3ccnc(-c4cnn(S(=O)(=O)C5CC5)c4)c3)ncc2-c2ccn(C(F)F)n2)CC1 [Example 354, (1s,4s)-4-((2-((2-(1-(Cyclopropylsulfonyl)-1H-pyrazol-4-yl)pyridin-4-yl)amino)-5-(1-(difluoromethyl)-1H-pyrazol-3-yl)pyridin-4-yl)amino)-1-methylcyclohexan-1-ol]																IC50 [1, 21]: 13.1 nM; IC50 ([2]; IC50 L858R/C797S, 100 μM ATP): 2540 nM; IC50 ([3]; IC50 WT, 100 μM ATP): > 10000 nM; IC50 [4, 22]: 2 nM; IC50 ([5]; IC50 del19/C797S, 100 μM ATP): 135 nM
O=S(=O)(C1CC1)n1cc(-c2nccc(Nc3cc(N[C@H]4C[C@@H](CO)C4)c(-c4ccn(C(F)F)n4)cn3)n2)cn1 [Example 377, ((1s,3s)-3-((2-((2-(1-(Cyclopropylsulfonyl)-1H-pyrazol-4-yl)pyrimidin-4-yl)amino)-5-(1-(difluoromethyl)-1H-pyrazol-3-yl)pyridin-4-yl)amino)cyclobutyl)methanol]						0.1	5.7	98.8	0.2	4.2						IC50 [1, 21]: 0.7 nM; IC50 ([2]; IC50 L858R/C797S, 100 μM ATP): 172 nM; IC50 ([3]; IC50 WT, 100 μM ATP): > 10000 nM; IC50 [4, 22]: 0.4 nM; IC50 ([5]; IC50 del19/C797S, 100 μM ATP): 5.8 nM
CN(C)CCNC1CCC(Nc2cc(Nc3ccnc(-c4cnn(S(=O)(=O)C5CC5)c4)n3)ncc2-c2csc(C(F)(F)F)n2)CC1 (centres unmarked) [Example 98, N^2-(2-(1-(Cyclopropylsulfonyl)-1H-pyrazol-4-yl)pyrimidin-4-yl)-N^4-(4-((2-(dimethylamino)ethyl)amino)cyclohexyl)-5-(2-(trifluoromethyl)thiazol-4-yl)pyridine-2,4-diamine]	2.7	7.7	1410	0.7	1.9											
C[C@]1(O)CC[C@@H](Nc2cc(Nc3ccnc(-c4cnn(S(=O)(=O)N5CC(F)C5)c4)n3)ncc2-c2ccn(C(F)F)n2)CC1 [Example 324, (1s,4s)-4-((5-(1-(Difluoromethyl)-1H-pyrazol-3-yl)-2-((2-(1-((3-fluoroazetidin-1-yl)sulfonyl)-1H-pyrazol-4-yl)pyrimidin-4-yl)amino)pyridin-4-yl)amino)-1-methylcyclohexan-1-ol]											1.7	13.2	55.5	4.6	66.9	
CN(C)C[C@H]1CC[C@@H](Nc2cc(Nc3ccnc(-c4cnn(S(=O)(=O)C5CC5)c4)n3)ncc2-c2ccn(C(F)F)n2)CC1 [Example 195, N^2-(2-(1-(Cyclopropylsulfonyl)-1H-pyrazol-4-yl)pyrimidin-4-yl)-5-(1-(difluoromethyl)-1H-pyrazol-3-yl)-N^4-((1s,4s)-4-((dimethylamino)methyl)cyclohexyl)pyridine-2,4-diamine]	0.1	0.8	145	0.1	0.3						0.04	0.1	0.3	0.1	0.2	
Cc1nn(CC(F)(F)F)cc1-c1cc(Nc2ncc(-c3cc(C(F)(F)F)n(C)n3)c(N[C@H]3CC[C@@](C)(O)CC3)n2)ccn1 [Example 369, (1s,4s)-1-Methyl-4-((2-((2-(3-methyl-1-(2,2,2-trifluoroethyl)-1H-pyrazol-4-yl)pyridin-4-yl)amino)-5-(1-methyl-5-(trifluoromethyl)-1H-pyrazol-3-yl)pyrimidin-4-yl)amino)cyclohexan-1-ol]						1	10.1	72.7	3.1	8.1						
O=S(=O)(C1CC1)n1cc(-c2nccc(Nc3cc(NC[C@H]4CC[C@@H](O)C4)c(-c4ccn(C(F)F)n4)cn3)n2)cn1 [Example 119, (1R,3S)-3-(((2-((2-(1-(Cyclopropylsulfonyl)-1H-pyrazol-4-yl)pyrimidin-4-yl)amino)-5-(1-(difluoromethyl)-1H-pyrazol-3-yl)pyridin-4-yl)amino)methyl)cyclopentan-1-ol]	0.6	15.1	> 10000	0.4	0.5						0.1	0.4	6.1	0.4	0.5	
